Experimental data: publication PMC5448288 (Journal of the American Chemical Society, 2009)
Where “and” joins values, the source holds several entries; their conditions need not be identical. Identical values can stand only once. Each block holds one molecule with its values, some of them ahead of it.

Target: human indoleamine 2,3-dioxygenase (hIDO) (Homo sapiens, UniProt P14902)
Test: steady-state dioxygenase activity of hIDO
[1] = compound as substrate, no IDE, pH 7.4, air-saturated, kcat = Vmax/[hIDO]
[2] = L-Trp reaction in the presence of 2.5 mM IDE, pH 7.4
[3] = L-Trp reaction in the presence of 5.1 mM IDE, pH 7.4

Chain of human indoleamine 2,3-dioxygenase (hIDO) (P14902 whole entry): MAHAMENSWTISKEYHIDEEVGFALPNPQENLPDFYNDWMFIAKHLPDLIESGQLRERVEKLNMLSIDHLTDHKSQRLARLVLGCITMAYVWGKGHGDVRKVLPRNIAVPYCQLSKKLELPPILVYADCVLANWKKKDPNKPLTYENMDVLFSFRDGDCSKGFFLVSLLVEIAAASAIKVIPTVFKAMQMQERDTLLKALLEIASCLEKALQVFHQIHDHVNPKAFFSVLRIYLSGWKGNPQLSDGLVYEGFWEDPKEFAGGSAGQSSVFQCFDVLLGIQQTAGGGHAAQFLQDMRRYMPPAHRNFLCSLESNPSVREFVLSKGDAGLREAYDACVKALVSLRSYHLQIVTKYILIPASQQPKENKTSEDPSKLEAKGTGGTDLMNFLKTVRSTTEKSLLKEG

substrate inhibition (activity as a function of substrate concentration, Figure 1b): No substrate inhibition was observed
Km (compound as substrate): 2600 µM
Km, fold larger as compared to the L-Trp reaction (compound as substrate): 170 fold
kcat, fold faster as compared to the L-Trp reaction (compound as substrate): 2 fold
Km (compound as substrate, no IDE, pH 7.4, air-saturated): 2600 µM
kcat [1]: 5.9 s⁻¹ and 5.9 ± 0.3 s⁻¹
SMILES: N[C@H](Cc1c[nH]c2ccccc12)C(=O)O [D-Trp]

Ksi [2]: 0.48 ± 0.05 mM
kcat [2]: 3.2 ± 0.4 s⁻¹
Ksi [3]: 1.0 ± 0.1 mM
kcat [3]: 3.5 ± 0.6 s⁻¹
SMILES: OCCc1c[nH]c2ccccc12 [IDE, 3-Indole Ethanol]

kcat [1]: 3.1 ± 0.2 s⁻¹
Ksi (self-inhibition / substrate-inhibition constant) (compound as substrate, no IDE, pH 7.4, fit with eq 1): 0.17 mM and 0.17 ± 0.2 mM
SMILES: N[C@@H](Cc1c[nH]c2ccccc12)C(=O)O [L-Trp, L-tryptophan]

mode of inhibition (Lineweaver–Burk plot of L-Trp reaction): uncompetitive
SMILES: CO[C@@]12[C@H](COC(N)=O)C3=C(C(=O)C(C)=C(N)C3=O)N1C[C@@H]1N[C@@H]12 [MtoC, Mitomycin C]
